Measured values taken from patent publication US9056119B2, “VEGF production promoter” (Kao Corporation, priority 2010, dated 2015).

Test system: VEGF
Experiment: Effect on production of VEGF: amount of VEGF secreted in culture supernatant, determined by ELISA
Type: cell-based
Settings: normal human newborn preputial epidermal keratinocytes (NHEK), 16 hours, control defined as 1
Description: Normal human newborn preputial epidermal keratinocytes (Kurabo Industries Ltd.: frozen NHEK (F) Lot. No. 061130-902) were used in a test. The cells were inoculated into three six-well microplates at 2×10^4 cells/mL per well. Culture was carried out in Defined keratinocyte-SFM (SFM medium, Gibco) under conditions of 2% CO2 and 37° C. After the cell density reached 50 to 60% confluence, the medium was exchanged for additive-free Defined keratinocyte-SFM medium (SFM (−) medium). The cells were conditioned to the SFM (−) medium for 24 hours, and the medium was then exchanged for an SFM (−) medium supplemented with an arbitrary concentration of the triterpenoid saponin obtained in Example 1. Then, the test was started.
It should be noted that a compound-free SFM (−) medium was used as a negative control. 16 hours after the start of the test, the media were collected, and the amounts of VEGF secreted in the supernatants of the cultures were determined using an ELISA kit (R&D Systems). The amount of VEGF produced in the control was defined as 1, and relative values to the control value were used for evaluation.

C[C@@H]1C[C@H]2O[C@]3(O[C@H]2C(C)(C)O)[C@H]1[C@@]1(C)CC[C@@]24C[C@@]25CC[C@H](O[C@@H]2OC[C@@H](O)[C@@H](O)C2O)C(C)(C)C5CC=C4[C@]1(C)[C@H]3O (stereo partly drawn) [Compound 2, 24-epi-7,8-Didehydrocimigenol-3-xyloside]
Relative value of secreted VEGF amount (20 μg/mL): 2.32
Relative value of secreted VEGF amount (100 μg/mL): 0.40

CC(=O)O[C@H]([C@H]1C[C@@H](C)[C@H]2[C@@](O)(O1)[C@H](O)[C@@]1(C)C3=CCC4C(C)(C)[C@@H](O[C@@H]5OC[C@@H](O)[C@@H](O)C5O)CC[C@@]45C[C@@]35CC[C@]21C)C(C)(C)O (stereo partly drawn) [Compound 1, 7,8-Didehydro-24-O-acetylhydroshengmanol-3-O-β-xyloside]
Relative value of secreted VEGF amount (20 μg/mL): 2.19
Relative value of secreted VEGF amount (100 μg/mL): 3.65
Relative value of secreted VEGF amount (200 μg/mL): 5.69

C[C@H](CC(=O)C1OC1(C)C)[C@H]1C(=O)C[C@@]2(C)C3=CCC4C(C)(C)[C@@H](O[C@@H]5OC[C@@H](O)[C@@H](O)C5O)CC[C@@]45C[C@@]35C(O)C[C@]12C (some centres unmarked) [Compound 3, Cimicifugoside H-1]
Relative value of secreted VEGF amount (20 μg/mL): 1.19
Relative value of secreted VEGF amount (100 μg/mL): 2.50
Relative value of secreted VEGF amount (200 μg/mL): 2.82
